Test results taken from PubChem BioAssay AID1963851 (Molecular Pharmacology Branch, DTP, NCI, 2024).

System: 188146-221-R-J1-PDC complex spheroid viability
Experiment: Anticancer human tumor 188146-221-R-J1-PDC patient-derived colon adenocarcinoma cell line growth inhibition [POLQ]
Settings: for IC50: curve of first compound; for viability, T/C: stronger effect = lower value
How it was run: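 Growth inhibition in 3D: complex spheroids (tumor PDC, HUVEC, MSC) treated with POLQ inhibitor combinations; where Cmax unknown, highest tested concentration 10 microM, except SN-38 at 1 microM.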
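Also: spheroids exposed to compounds for seven days.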
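For viability, T/C in this document: 100% = DMSO vehicle control viability.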

Question: Which results are given for `Cn1ncnc1[C@H]1c2n[nH]c(=O)c3cc(F)cc(c23)N[C@@H]1c1ccc(F)cc1` + Nc1ccc(C#CCN(C(=O)Cc2ncc(C(F)(F)F)cc2C(F)(F)F)c2ccc(F)cc2)nn1?
Answer: IC50 (second compound 0.0316 µM): > 100 nM; IC50 (second compound 0.1 µM): > 100 nM; IC50 (second compound 0.316 µM): > 100 nM; IC50 (second compound 1 µM): > 100 nM; IC50 (second compound 3.16 µM): > 100 nM; IC50 (second compound 10 µM): > 100 nM; viability, T/C (second compound 0.0316 µM, first compound 0.000316 µM): 92%; viability, T/C (second compound 0.0316 µM, first compound 0.001 µM): 109%; viability, T/C (second compound 0.0316 µM, first compound 0.00316 µM): 98.2%; viability, T/C (second compound 0.0316 µM, first compound 0.01 µM): 116%; viability, T/C (second compound 0.0316 µM, first compound 0.0316 µM): 98.7%; viability, T/C (second compound 0.0316 µM, first compound 0.1 µM): 93.2%; viability, T/C (second compound 0.1 µM, first compound 0.000316 µM): 111%; viability, T/C (second compound 0.1 µM, first compound 0.001 µM): 104%; viability, T/C (second compound 0.1 µM, first compound 0.00316 µM): 108%; viability, T/C (second compound 0.1 µM, first compound 0.01 µM): 102%; viability, T/C (second compound 0.1 µM, first compound 0.0316 µM): 100%; viability, T/C (second compound 0.1 µM, first compound 0.1 µM): 96%; viability, T/C (second compound 0.316 µM, first compound 0.000316 µM): 102%; viability, T/C (second compound 0.316 µM, first compound 0.001 µM): 103%; viability, T/C (second compound 0.316 µM, first compound 0.00316 µM): 96.7%; viability, T/C (second compound 0.316 µM, first compound 0.01 µM): 93.8%; viability, T/C (second compound 0.316 µM, first compound 0.0316 µM): 112%; viability, T/C (second compound 0.316 µM, first compound 0.1 µM): 98.9%; viability, T/C (second compound 1 µM, first compound 0.000316 µM): 100%; viability, T/C (second compound 1 µM, first compound 0.001 µM): 107%; viability, T/C (second compound 1 µM, first compound 0.00316 µM): 109%; viability, T/C (second compound 1 µM, first compound 0.01 µM): 94.5%; viability, T/C (second compound 1 µM, first compound 0.0316 µM): 95.2%; viability, T/C (second compound 1 µM, first compound 0.1 µM): 97.2%; viability, T/C (second compound 3.16 µM, first compound 0.000316 µM): 106%; viability, T/C (second compound 3.16 µM, first compound 0.001 µM): 99.3%; viability, T/C (second compound 3.16 µM, first compound 0.00316 µM): 95.9%; viability, T/C (second compound 3.16 µM, first compound 0.01 µM): 91.7%; viability, T/C (second compound 3.16 µM, first compound 0.0316 µM): 95.8%; viability, T/C (second compound 3.16 µM, first compound 0.1 µM): 93%; viability, T/C (second compound 10 µM, first compound 0.000316 µM): 108%; viability, T/C (second compound 10 µM, first compound 0.001 µM): 95.3%; viability, T/C (second compound 10 µM, first compound 0.00316 µM): 116%; viability, T/C (second compound 10 µM, first compound 0.01 µM): 119%; viability, T/C (second compound 10 µM, first compound 0.0316 µM): 109%; viability, T/C (second compound 10 µM, first compound 0.1 µM): 90.1%
